Measured values published in patent US20220348549A1 (Hoffmann-La Roche Inc., priority 2019, published 2022).

Each compound was assayed on HBV cccDNA (HBeAg level in HepDES19 cells) (assay: Engineered HepDES19 primary screen assay (HBeAg ELISA as surrogate marker for cccDNA)). Details: Hepatitis B virus, HepDES19, 120 h.
Type: cell-based
From the text: The assay was employed to screen for novel HBV cccDNA inhibitors. HepDES19 is a HBV cccDNA-producing cell line. In this cell line, HBeAg in the cell culture supernatant as surrogate marker, as HBeAg production depends on cccDNA level and activity. HepDES19 is an engineered cell line which contains a 1.1 unit length HBV genome, and pgRNA transcription from the transgene is controlled by Tetracycline (Tet). In the absence of Tet, pgRNA transcription will be induced, but HBV e antigen (HBeAg) could not be produced from this pgRNA due to very short leader sequence before the HBeAg start codon and the start codon is disrupted. Only after cccDNA is formed, the missing leader sequence and start codon mutation would be restored from the 3′-terminal redundancy of pgRNA, and then HBeAg could be synthesized. Therefore, HBeAg could be used as a surrogate marker for cccDNA (Zhou, T. et al., Antiviral Res. (2006), 72(2), 116-124; Guo, H. et al., J. Virol. (2007), 81(22), 12472-12484).
HepDES19 cells were seeded at 2×10^6 cells per T150 flask and cultured with the culture medium (Dulbecco's Modified Eagle Medium: Nutrient Mixture F-12 [DMEM-F12, Gibco Cat. 11320-82], 10% Fetal Bovine Serum [FBS, Clontech Cat. 631101], 0.1 mM Non-Essential Amino Acids Solution [NEAA, Gibco Cat. 11140-050], 50 μg/mL Penicillin-Streptomycin [PS, Invitrogen Cat. 15140-163], 500 μg/mL Geneticin [G418, Invitrogen Cat. 10131-027]) containing 3 μg/mL Tet (Sigma, Cat. 87128) for 5 days. Cells were then seeded at 4×10^6 cells per T150 in the same culture medium as described above in the absence of Tet for 8 days. Cells were then harvested and frozen at density of 2×10^6 cells per mL. For compound testing, the frozen cells were thawed and seeded into 96-well plates at a density of 6×10^4 cells per well. At 24 hrs after seeding, half log serial dilutions of compounds made with Dimethyl sulfoxide (DMSO, Sigma, Cat. D2650) were further diluted with the same culture medium as described above before they were added to the cells to reach desired final compound concentrations and 1% DMSO concentration. Plates were then incubated at 37° C. for another 5 days before measurement of HBeAg level and cell viability. Intracellular HBeAg level were measured with enzyme-linked immunosorbent assay (ELISA) kit (Shanghai Kehua Diagnostic Medical Products Co., Ltd). Cell viability was assessed using Cell Counting Kit-8 (Donjindo, Cat. CK04-20). IC50 values were derived from the dose-response curve using 4 parameter logistic curve fit method.
The compounds of the present invention were tested for their capacity to inhibit extracellular HBeAg level as described herein.

| Compound | IC50 |
| --- | --- |
| COC(=O)c1nc(-c2cccc(Br)c2)nc2cc(C(F)(F)F)ccc12 [Example 32, Methyl 2-(3-bromophenyl)-7-(trifluoromethyl)quinazoline-4-carboxylate] | 6.19 µM |
| COc1ccc(-c2ncc3cccc(Cl)c3n2)cc1 [Example 36, 8-Chloro-2-(4-methoxyphenyl)quinazoline] | 0.18 µM |
| OCc1nc(-c2ccc(Cl)cc2)nc2c(Cl)cccc12 [Example 21, (8-Chloro-2-(4-chlorophenyl)quinazolin-4-yl)methanol] | 0.094 µM |
| O=C(c1nc(-c2ccc(Cl)nc2)nc2c(Cl)cccc12)N1CCOCC1 [Example 53, [8-Chloro-2-(6-chloro-3-pyridyl)quinazolin-4-yl]-morpholino-methanone] | 0.083 µM |
| COC(=O)C1CCN(c2ccc(-c3ncc4cccc(Cl)c4n3)cn2)CC1 [Example 29, Methyl 1-(5-(8-chloroquinazolin-2-yl)pyridin-2-yl)piperidine-4-carboxylate] | 1.23 µM |
| Cc1nc(-c2cccc(Br)c2)nc2cc(C(F)(F)F)c(Cl)cc12 [Example 4, 2-(3-Bromophenyl)-6-chloro-4-methyl-7-(trifluoromethyl)quinazoline] | 3.62 µM |
| CN(C)c1ccc(-c2ncc3cccc(Cl)c3n2)cn1 [Example 26, 5-(8-Chloroquinazolin-2-yl)-N,N-dimethylpyridin-2-amine] | 0.091 µM |
| O=C(O)c1nc(-c2cccc(Br)c2)nc2cc(C(F)(F)F)ccc12 [Example 31, 2-(3-Bromo-phenyl)-7-trifluoromethyl-quinazoline-4-carboxylic acid] | 17.8 µM |
| Oc1ccc(-c2ncc3cccc(Cl)c3n2)cc1 [Example 5, 4-(8-Chloroquinazolin-2-yl)phenol] | 4.35 µM |
| OCc1nc(-c2cccc(Br)c2)nc2cc(C(F)(F)F)ccc12 [Example 20, (2-(3-Bromophenyl)-7-(trifluoromethyl)quinazolin-4-yl)methanol] | 3.66 µM |
| O=C(O)[C@H]1C[C@@H](OCCOc2ccc(-c3nc(O)c4cccc(Cl)c4n3)cn2)C1 [Example 54, cis-3-[2-[[5-(8-Chloro-4-hydroxy-quinazolin-2-yl)-2-pyridyl]oxy]ethoxy]cyclobutanecarboxylic acid] | 3.42 µM |
| Cc1nc(-c2ccc(OCCO)cc2)nc2c(Cl)cccc12 [Example 9, 2-[4-(8-Chloro-4-methyl-quinazolin-2-yl)phenoxy]ethanol] | 1.93 µM |
| Cc1nc(-c2ccc(OCCOCC(=O)O)cc2)nc2c(Cl)cccc12 [Example 11, 2-[2-[4-(8-Chloro-4-methyl-quinazolin-2-yl)phenoxy]ethoxy]acetic acid] | 4.49 µM |
| Clc1ccc(-c2ncc3cccc(Cl)c3n2)cn1 [Example 24, 8-Chloro-2-(6-chloropyridin-3-yl)quinazoline] | 0.094 µM |
